Assay results published in patent US11154551B2, “HDAC1,2 inhibitors and methods of using the same” (UNIVERSITY OF UTAH RESEARCH FOUNDATION, priority 2014, dated 2021).

How the values were obtained:
HDAC2 = biological target: T1, HDAC2 (Homo sapiens, UniProt Q92769); assay: in vitro HDAC enzyme assay with recombinant enzyme; conditions: from biochemical IC50 values, recombinant enzymes
T1 construct: purchased BPS Biosciences
From the text: (§1) Among class I HDACs, Hdac1,2 share a 50% sequence homology with Hdac3. Therefore, we first determined the selectivity of ACY-957 towards HDAC1 and HDAC2 in in vitro enzyme assays using recombinant enzymes.

HDAC1 = biological target: T2, HDAC1 (Homo sapiens, UniProt Q13547); assay: in vitro HDAC enzyme assay with recombinant enzyme; conditions: from biochemical IC50 values, recombinant enzymes
T2 construct: purchased BPS Biosciences
T2 sequence (Q13547 whole entry): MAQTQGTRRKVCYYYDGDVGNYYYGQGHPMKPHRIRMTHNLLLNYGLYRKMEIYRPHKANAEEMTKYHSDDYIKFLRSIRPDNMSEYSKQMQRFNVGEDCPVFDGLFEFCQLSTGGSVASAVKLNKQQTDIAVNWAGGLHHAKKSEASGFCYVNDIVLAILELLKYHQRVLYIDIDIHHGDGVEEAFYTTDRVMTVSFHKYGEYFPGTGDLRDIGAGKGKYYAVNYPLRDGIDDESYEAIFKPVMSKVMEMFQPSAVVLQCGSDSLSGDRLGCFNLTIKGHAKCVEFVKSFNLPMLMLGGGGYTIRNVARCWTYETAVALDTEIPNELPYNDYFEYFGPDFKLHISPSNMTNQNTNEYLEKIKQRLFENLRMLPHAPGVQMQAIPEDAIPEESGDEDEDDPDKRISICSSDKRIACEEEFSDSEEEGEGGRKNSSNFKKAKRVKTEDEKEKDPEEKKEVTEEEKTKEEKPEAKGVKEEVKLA
From the text: as §1

Karpas-422 cells = assay: ChIP of H3K27ac and H3K27me3 at BMF and TP63 promoters; format: cell-based, human; conditions: 2 μM, vs DMSO
From the text: RNA samples obtained from three independent treatments were subjected to RiboZero stranded sequencing using the Illumina Hiseq2000 sequencer. RNA-seq data from ACY-957-treated samples was compared to the publically available RNA seq data set from Karpas-422 cells following GSK126 treatment of Karpas-422 cells. Venn diagrams were made using the R package VennDiagram. Genes with adjusted p-value<0.05 and absolute log 2 fold change>0.585 were used in this analysis. (B): Pathway analysis of the 71 commonly up regulated genes was performed. Screen shots of the pathways that were misregulated in both ACY-957-treated Karpas-422 cells and in Karpas-422 cells following GSK-126 treatment. […] (C): Base read depth, scaled per million mapped reads, for BMF and Tp63 genes in DMSO- or ACY-957-treated Karpas-422 cells. […] Fold-increase as determined by real-time PCR analysis in H3K27ac relative to total H3 occupancy was calculated for both ACY-957-treated and DMSO-treated samples and the relative fold-enrichment of H3K27ac and […] in ACY-957-treated samples was calculated following normalization to DMSO-treated samples. The data represented an average fold-change calculated from three independent experiments+/−standard error. *p=0.003 and **p=0.004 (E): ChIP analysis of HDAC1 and HDAC2 at the promoters of BMF and Tp63 genes was performed in Karpas-422 cells. […]

[1] = system: SupB15 (Ph+PreB-ALL) cells; assay: γH2AX immunofluorescence; format: cell-based, human; conditions: 2 μM, 48 hours
Method: SupB15 cells were treated with 2 μM ACY1035, ACY1071, ACY957, or solvent (DMSO) for 48 hours. (A) Immunofluorescence with γH2AX was performed on treated SupB15 cells. The number of γH2AX foci was counted in around 100 cells for each treatment and classified into cells with no foci, 1-5, 6-10, and greater than 10 foci. (B) SupB15 cells treated with DMSO or ACY1035 for 48 hours were tested via neutral comet assay to measure the amount of double-strand breaks (DSBs), indicated by the tail.
BCR-ABL promotes DNA repair to prevent DNA damage accumulation in Philadelphia chromosome-positive (Ph+) leukemia cells. To examine the effect of various HDAC1,2-selective inhibitors on DNA repair and DNA damage response in Pre-B-ALL cells that express BCR-ABL, SupB15 (Ph+PreB-ALL) cells were treated with 2 μM ACY1035 or 2 μM ACY1071 or 2 μM ACY957 for 48 hours.

Hdac1,2 = assay: in vitro enzyme assays, IC50 determination (FIG. 17A); format: biochemical
Method: (A). For IC50 determination, recombinant HDAC enzymes were treated with HDAC1,2 or HDAC3 inhibitors in in vitro HDAC assays. (B). Western blots for H3K23ac using extracts from Pre-B-ALL SupB15 cells treated with increasing dose of HDAC1,2 inhibitor (ACY1035). (C). Hdac1^FI/FI, 2^FI/FI cells were infected with Ad-Cre virus to delete HDAC1 and HDAC2 (HDAC1,2 null) or uninfected (WT). (D). Hdac3^FI/FI cells were either uninfected (WT) or infected with Ad-Cre virus to delete Hdac3. HDAC3-null cells were treated with DMSO or the HDAC1,2 selective inhibitor.
We have determined 2 μM (FIG. 17B) as the minimum dose for the ACY compounds, respectively, that when added to cells increased H3K23ac (a mark targeted by Hdac1,2 but not Hdac3).

[2] = system: non-transformed, mouse bone marrow Pro-B derived Baf3 cells or cord blood stem cells; assay: cell death in non-transformed cells; format: cell-based; conditions: 2 μM, within 72 hr
From the text: Therefore, transformed lymphoma cells are more sensitive to HDAC1,2 inhibition when compared to the untransformed normal B-cells. HDAC1,2 inhibitor causes replication fork collapse in S-phase to trigger DNA damage response, and transformed cancer cells have increased DNA replication when compared to normal B cells. […] In addition to this property, EZH2^GOF DLBCL cells also have increased DNA repair compared to EZH2^WT DLBCL cells (FIG. 34A), which can also be targeted by HDAC1,2 inhibitor as it impairs the HDAC1,2 regulated DNA repair processes used by EZH2^GOF DLBCL cells for their survival.

T1 sequence (Q92769 whole entry): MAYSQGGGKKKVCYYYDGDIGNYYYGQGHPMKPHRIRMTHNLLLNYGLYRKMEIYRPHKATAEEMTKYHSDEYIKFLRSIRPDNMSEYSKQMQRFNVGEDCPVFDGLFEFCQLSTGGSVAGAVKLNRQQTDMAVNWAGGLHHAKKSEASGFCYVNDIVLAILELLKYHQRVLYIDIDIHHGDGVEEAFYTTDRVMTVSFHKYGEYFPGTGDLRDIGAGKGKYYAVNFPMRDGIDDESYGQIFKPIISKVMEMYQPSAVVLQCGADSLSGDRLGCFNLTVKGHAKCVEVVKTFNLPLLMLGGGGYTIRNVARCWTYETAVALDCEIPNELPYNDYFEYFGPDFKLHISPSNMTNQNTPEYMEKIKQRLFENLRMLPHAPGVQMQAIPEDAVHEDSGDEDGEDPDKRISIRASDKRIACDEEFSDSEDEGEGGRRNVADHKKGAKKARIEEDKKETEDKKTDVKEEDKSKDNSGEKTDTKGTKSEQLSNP

## Nc1ccc(-c2cccs2)cc1NC(=O)c1ccc2nc(N3CCNCC3)ccc2c1 [ACY-957, N-(2-amino-5-(thiophen-2-yl)phenyl)-2-(piperazin-1-yl)quinoline-6-carboxamide]
HDAC2
  selectivity for HDAC2 when compared to HDAC3: 72 fold
HDAC1
  selectivity for HDAC1 when compared to HDAC3: 185 fold
Karpas-422 cells
  H3K27ac at promoter regions of TP63 and BMF: increase in H3K27ac levels at the promoter regions of both TP63 and BMF genes
  H3K27me3 at TP63 and BMF promoters: concomitant decrease in H3K27me3 was not observed
[1]
  DNA damage, quantitation of γH2AX foci: statistically significant increase in DNA damage
Hdac1,2
  inhibition of Hdac1,2 activities compared to Hdac3 (IC50 values): very selectively
[2]
  cell death: did not cause any cell death
